Where two headings read alike, the source gives them in different places.
How the values were obtained:
gastric juice secretion = experiment: Shay rat pylorus ligation method (gastric juice secretion-inhibiting activity); format: in vivo, male Wistar rats; conditions: 100 mg/kg, 4 hours after ligation; for inhibition in vivo at 100 mg/kg: Rattus norvegicus, 4 h
Experimental: The pharmacological activities of the compounds (1) were tested by a Shay rat pylorus ligation method (cf. H. Shay et al: Gastroenterol., Vol. 5, page 43, 1945) which is the most popular method for testing of gastric juice secretion-inhibiting activity. The test was carried out by using male Wistar rats, weighing about 170 g and fasting for 24 hours.
Test compounds were administered 30 minutes before the pylorus ligation in a dose of 100 mg/kg in subcutaneous route in case of test compounds 37, 38, 50, 51 and 52, in a dose of 200 mg/kg in subcutaneous route in case of test compounds 105 and 106 and in dose of 100 mg/kg in duodenal route in case of other test compounds, and the volume, total acidity and pepsin activity of the gastric juice were measured 4 hours after the ligation. As a control, a saline solution was administered instead of the test compound. The inhibitory ratio (%) of the test compounds were calculated when the inhibitory activities of the control were counted as zero (0).
(§1) In the table, the inhibitory ratio (%) was evaluated as follows: […]

stress ulcer = experiment: Stress ulcer (restraint and water immersion); format: in vivo, male Wistar rats; conditions: Rattus norvegicus, po, 7 h, read-out: Inhibitory ratio of stress ulcer; for inhibition in vivo: concentration of 1×10^-3 mole
Experimental: After male Wistar rats weighing about 170 g was fasted for 24 hours, the rats were restrained in a stress cage and dipped in water bath at 23° C. till chest of the animals. After 7 hours, the rats were killed and the stomach was isolated. Into the isolated stomach 10% formalin (8 ml) was poured and settled. The stomach was cut open at the greater curvature, and the length of each ulcer on the membrane was measured. Sum of the length of all ulcers was shown as ulcer index (UI). The test compound was orally administered to the rats before restraint in a stress cage in a dose of 300 mg/kg in the form of 0.5% CMC suspension in case of test compounds 3, 4, 6, 15 and 27 and in a concentration of 1×10^-3 mole in case of other test compounds. As a control, only the solvent (CMC solution) was administered likewise. The inhibitory ratio (%) of stress ulcer of the test compounds was calculated by the following equation: [formula]
as §1

[1] = duodenal route, read-out: Inhibitory ratio, volume of gastric juice
[2] = sc, subcutaneous route, read-out: Inhibitory ratio, pepsin activity
[3] = sc, subcutaneous route, read-out: Inhibitory ratio, total acidity
[4] = sc, subcutaneous route, read-out: Inhibitory ratio, volume of gastric juice

SMILES: Cn1nnnc1SCCCCCCSc1nnnn1C [Test compound 36, 1-Methyl-5-[6-(1-methyl-1,2,3,4-tetrazol-5-yl)thiohexyl]thio-1,2,3,4-tetrazole]
- Inhibitory ratio, volume of gastric juice (gastric juice secretion; duodenal route): + +
- inhibition in vivo (stress ulcer): > 60%

SMILES: Cn1ccnc1SCCCSc1nnnn1C [Test compound 11, 1-Methyl-5-[3-(1-methylimidazol-2-yl)thiopropyl]thio-1,2,3,4-tetrazole]
- inhibition in vivo at 100 mg/kg (gastric juice secretion; [1]): > 50%

SMILES: Cn1nnnc1SCCCSc1nc2ccccc2[nH]1 [Test compound 19, 1-Methyl-5-[3-(2-benzimidazolyl)thiopropyl]thio-1,2,3,4-tetrazole]
- inhibition in vivo at 100 mg/kg (gastric juice secretion; [1]): 10 to 50%

SMILES: Cn1nnnc1SCCCNC(=O)C1CCCCC1 [Test compound 81, 1-Methyl-5-(3-cyclohexylcarbonylaminopropyl)thio-1,2,3,4-tetrazole]
- inhibition in vivo at 100 mg/kg (gastric juice secretion; duodenal route, read-out: Inhibitory ratio, pepsin activity): 10 to 50%
- inhibition in vivo at 100 mg/kg (gastric juice secretion; duodenal route, read-out: Inhibitory ratio, total acidity): 10 to 50%
- inhibition in vivo at 100 mg/kg (gastric juice secretion; [1]): 10 to 50%

SMILES: Cc1nnnn1CCCC(=O)N1CCOCC1 [Test compound 117, 5-Methyl-1-(3-morpholinocarbonylpropyl)-1,2,3,4-tetrazole]
- inhibition in vivo (stress ulcer): 30 to 60%

SMILES: CCC(=O)CCCSc1nnnn1C [Test compound 50, 1-Methyl-5-(3-propionylpropyl)thio-1,2,3,4-tetrazole]
- inhibition in vivo at 100 mg/kg (gastric juice secretion; [2]): > 50%
- inhibition in vivo at 100 mg/kg (gastric juice secretion; [3]): > 50%
- inhibition in vivo at 100 mg/kg (gastric juice secretion; [4]): > 50%

SMILES: Cc1nnc(SCCCSc2nnnn2C)n1C [Test compound 15, 1-Methyl-5-[3-(4,5-dimethyl-1,2,4-triazol-3-yl)thiopropyl]thio-1,2,3,4-tetrazole]
- inhibition in vivo at 300 mg/kg (stress ulcer; 300 mg/kg, 0.5% CMC suspension): > 60%

SMILES: COc1ccc(CCNC(=O)CCCn2nnnc2C)cc1OC [Test compound 114, N-[2-(3,4-Dimethoxyphenyl)ethyl]-4-(5-methyl-1,2,3,4-tetrazol-1-yl)butyramide]
- inhibition in vivo (stress ulcer): 30 to 60%

SMILES: Cn1nnnc1SCCCSCc1ccco1 [Test compound 21, 1-Methyl-5-[3-(2-furyl)methylthiopropyl]thio-1,2,3,4-tetrazole]
- inhibition in vivo at 100 mg/kg (gastric juice secretion; [1]): > 50%

SMILES: Cn1nnnc1SCCCSc1ccncc1 [Test compound 25, 1-Methyl-5-[3-(4-pyridyl)thiopropyl]thio-1,2,3,4-tetrazole]
- inhibition in vivo (stress ulcer): > 60%

SMILES: c1ccc(-n2nnnc2SCCCSc2nnnn2-c2ccccc2)cc1 [Test compound 38, 1-Phenyl-5-[3-(1-phenyl-1,2,3,4-tetrazol-5-yl)thiopropyl]thio-1,2,3,4-tetrazole]
- inhibition in vivo at 100 mg/kg (gastric juice secretion; [2]): 10 to 50%
- inhibition in vivo at 100 mg/kg (gastric juice secretion; [3]): 10 to 50%
- inhibition in vivo at 100 mg/kg (gastric juice secretion; [4]): 10 to 50%

SMILES: Cn1nnnc1SCCCS(=O)(=O)c1ccccn1 [Test compound 48, 3-(1-Methyl-1,2,3,4-tetrazol-5-yl)thiopropyl 2-pyridyl sulfone]
- inhibition in vivo at 100 mg/kg (gastric juice secretion; [1]): 10 to 50%

SMILES: Cn1nnnc1SCCCCCSc1ccccn1 [Test compound 32, 1-Methyl-5-[5-(2-pyridyl)thiopentyl]thio-1,2,3,4-tetrazole]
- inhibition in vivo at 100 mg/kg (gastric juice secretion; [1]): 10 to 50%

SMILES: CC(=O)N(C)CCCSc1nnnn1C [Test compound 83, 1-Methyl-5-[3-(N-methyl-N-acetylamino)propyl]thio-1,2,3,4-tetrazole]
- inhibition in vivo (stress ulcer): > 60%

SMILES: Cc1nnnn1CCCC(=O)N1CCN(C)CC1 [Test compound 112, 5-Methyl-1-[3-(4-methyl-1-piperazinylcarbonyl)propyl]-1,2,3,4-tetrazole]
- inhibition in vivo (stress ulcer): > 60%

SMILES: Cn1nnnc1SCCCCC(=O)c1ccccc1 [Test compound 71, 1-Methyl-5-(4-benzoylbutyl)thio-1,2,3,4-tetrazole]
- inhibition in vivo at 100 mg/kg (gastric juice secretion; [1]): 10 to 50%

SMILES: CC(CC[S+]([O-])c1nnnn1C)Sc1nnnn1C (stereo not shown) [Test compound 49, 1-Methyl-1,2,3,4-tetrazol-5-yl 3-methyl-3-(1-methyl-1,2,3,4-tetrazol-5-yl)thiopropyl sulfoxide]
- inhibition in vivo (stress ulcer): > 60%

SMILES: Cn1nnnc1SCCCSCc1ccccn1 [Test compound 23, 1-Methyl-5-[3-(2-pyridyl)methylthiopropyl]thio-1,2,3,4-tetrazole]
- inhibition in vivo at 100 mg/kg (gastric juice secretion; [1]): 10 to 50%

SMILES: Cn1nnnc1SCCSc1nnnn1C [Test compound 35, 1-Methyl-5-[2-(1-methyl-1,2,3,4-tetrazol-5-yl)thioethyl]thio-1,2,3,4-tetrazole]
- Inhibitory ratio, volume of gastric juice (gastric juice secretion; duodenal route): + +

SMILES: CCN(CCCSc1nnnn1C)C(=O)C1CCCC1 [Test compound 92, 1-Methyl-5-[3-(N-ethyl-N-cyclopentylcarbonylamino)propyl]thio-1,2,3,4-tetrazole]
- inhibition in vivo at 100 mg/kg (gastric juice secretion; [1]): 10 to 50%

SMILES: Cn1nnnc1SCCCCSc1ccccc1 [Test compound 28, 1-Methyl-5-(4-phenylthiobutyl)thio-1,2,3,4-tetrazole]
- inhibition in vivo at 100 mg/kg (gastric juice secretion; [1]): 10 to 50%

SMILES: Cc1ccnc(SCCCSc2nnnn2C)n1 [Test compound 13, 1-Methyl-5-[3-(4-methyl-2-pyrimidyl)thiopropyl]thio-1,2,3,4-tetrazole]
- inhibition in vivo at 100 mg/kg (gastric juice secretion; [1]): > 50%

SMILES: Cn1nnnc1[S+]([O-])CCCCSc1ccccn1 (stereo not shown) [Test compound 45, 1-Methyl-1,2,3,4-tetrazol-5-yl 4-(2-pyridyl)thiobutyl sulfoxide]
- inhibition in vivo (stress ulcer): > 60%

SMILES: Cc1nnc(SC(C)CCSc2nnnn2C)o1 (stereo not shown) [Test compound 42, 1-Methyl-5-[3-methyl-3-(5-methyl-1,3,4-oxadiazol-2-yl)thiopropyl]thio-1,2,3,4-tetrazole]
- inhibition in vivo (stress ulcer): > 60%

SMILES: Cn1nnnc1SCCCCS(=O)(=O)c1nnnn1C [Test compound 47, 4-(1-Methyl-1,2,3,4-tetrazol-5-yl)thiobutyl 1-methyl-1,2,3,4-tetrazol-5-yl sulfone]
- inhibition in vivo at 100 mg/kg (gastric juice secretion; [1]): > 50%

SMILES: CCCCOc1ccc(C(=O)CCCSc2nnnn2C)cc1 [Test compound 79, 1-Methyl-5-[3-(4-butoxybenzoyl)propyl]thio-1,2,3,4-tetrazole]
- inhibition in vivo (stress ulcer): > 60%

SMILES: Cn1nnnc1SCCCSc1ccc([N+](=O)[O-])cn1 [Test compound 40, 1-Methyl-5-[3-(5-nitro-2-pyridyl)thiopropyl]thio-1,2,3,4-tetrazole]
- inhibition in vivo (stress ulcer): > 60%

SMILES: Cn1nnnc1SCCCSc1ccc2ccccc2n1 [Test compound 18, 1-Methyl-5-[3-(2-quinolyl)thiopropyl]thio-1,2,3,4-tetrazole]
- inhibition in vivo at 100 mg/kg (gastric juice secretion; [1]): 10 to 50%

SMILES: Cn1nnnc1SCc1ccccn1 [Test compound 98, 1-Methyl-5-(2-pyridylmethyl)thio-1,2,3,4-tetrazole]
- inhibition in vivo at 100 mg/kg (gastric juice secretion; [1]): > 50%

SMILES: Cn1nnnc1SCCCSCc1ccccc1 [Test compound 22, 1-Methyl-5-(3-benzylthiopropyl)thio-1,2,3,4-tetrazole]
- inhibition in vivo at 100 mg/kg (gastric juice secretion; [1]): > 50%

SMILES: Cn1nnnc1SCCCCSc1nc2ccccc2c(=O)[nH]1 [Test compound 29, 1-Methyl-5-[4-(4-oxo-3,4-dihydroquinazolin-2-yl)thiobutyl]thio-1,2,3,4-tetrazole]
- inhibition in vivo at 100 mg/kg (gastric juice secretion; [1]): 10 to 50%

SMILES: COc1ccc(C(=O)CCCSc2nnnn2C)cc1 [Test compound 63, 1-Methyl-5-[3-(4-methoxybenzoyl)propyl]thio-1,2,3,4-tetrazole]
- inhibition in vivo at 100 mg/kg (gastric juice secretion; [1]): 10 to 50%

SMILES: Cn1nnnc1SCCCSc1ccccc1 [Test compound 10, 1-Methyl-5-(3-phenylthiopropyl)thio-1,2,3,4-tetrazole]
- inhibition in vivo at 100 mg/kg (gastric juice secretion; [1]): 10 to 50%

SMILES: Cn1nnnc1SCCCSc1nnnn1C [Test compound 37, 1-Methyl-5-[3-(1-methyl-1,2,3,4-tetrazol-5-yl)thiopropyl]thio-1,2,3,4-tetrazole]
- inhibition in vivo at 100 mg/kg (gastric juice secretion; [2]): > 50%
- inhibition in vivo at 100 mg/kg (gastric juice secretion; [3]): > 50%
- inhibition in vivo at 100 mg/kg (gastric juice secretion; [4]): > 50%

— patent US4372953A, “Tetrazole derivatives, and anti-ulcer composition containing the same” (Otsuka Pharmaceutical Company, Limited, priority 1980, dated 1983)
